ChEMBL document CHEMBL1687760, “Secondary integrase resistance mutations found in HIV-1 minority quasispecies in integrase therapy-naive patients have little or no effect on susceptibility to integrase inhibitors” (Antimicrob Agents Chemother, 2010)

Legend:
[1] = test system: Human immunodeficiency virus 1; assay: Antiviral activity against Human immunodeficiency virus 1 3B harboring integrase L74M mutant infected in human MT4 cells assessed as inhibition of virus induced cytopathic effect relative to wild type HIV1; format: functional
[2] = test system: Human immunodeficiency virus 1; assay: Antiviral activity against Human immunodeficiency virus 1 3B harboring integrase E92G mutant infected in human MT4 cells assessed as inhibition of virus induced cytopathic effect relative to wild type HIV1; format: functional
[3] = test system: Human immunodeficiency virus 1; assay: Antiviral activity against Human immunodeficiency virus 1 3B harboring integrase T97A mutant infected in human MT4 cells assessed as inhibition of virus induced cytopathic effect relative to wild type HIV1; format: functional
[4] = test system: Human immunodeficiency virus 1; assay: Antiviral activity against Human immunodeficiency virus 1 3B harboring integrase S119G mutant infected in human MT4 cells assessed as inhibition of virus induced cytopathic effect relative to wild type HIV1; format: functional
[5] = test system: Human immunodeficiency virus 1; assay: Antiviral activity against Human immunodeficiency virus 1 3B harboring integrase G140S mutant infected in human MT4 cells assessed as inhibition of virus induced cytopathic effect relative to wild type HIV1; format: functional
[6] = test system: Human immunodeficiency virus 1; assay: Antiviral activity against Human immunodeficiency virus 1 3B harboring integrase M154I mutant infected in human MT4 cells assessed as inhibition of virus induced cytopathic effect relative to wild type HIV1; format: functional
[7] = test system: Human immunodeficiency virus 1; assay: Antiviral activity against Human immunodeficiency virus 1 3B harboring integrase K156N mutant infected in human MT4 cells assessed as inhibition of virus induced cytopathic effect relative to wild type HIV1; format: functional
[8] = test system: Human immunodeficiency virus 1; assay: Antiviral activity against Human immunodeficiency virus 1 clone 15_7 harboring integrase E11D, S17T, L45V, M50T, I72V, L74I, T97A, K111T, S119G, T125A infected in human MT4 cells assessed as inhibition of virus induced cytopathic effect relative to wild type HIV1; format: functional
[9] = test system: Human immunodeficiency virus 1; assay: Antiviral activity against Human immunodeficiency virus 1 clone 15_19 harboring integrase E11D, S17T, L45V, M50T, I72V, L74I, T97A, K111T, S119G, T125A infected in human MT4 cells assessed as inhibition of virus induced cytopathic effect relative to wild type HIV1; format: functional
[10] = test system: Human immunodeficiency virus 1; assay: Antiviral activity against Human immunodeficiency virus 1 clone 50_2 harboring integrase R20K, A23V, E92G, T124N, I141V, G193E, V201I, T206S, I220V, D279G infected in human MT4 cells assessed as inhibition of virus induced cytopathic effect relative to wild type HIV1; format: functional
[11] = test system: Human immunodeficiency virus 1; assay: Antiviral activity against Human immunodeficiency virus 1 clone 5 harboring integrase E11D, S17T, S39G, L45V, M50I, I72V, L74I, K111T, S119G, T125A relative to wild type HIV1; format: functional
[12] = test system: Human immunodeficiency virus 1; assay: Antiviral activity against Human immunodeficiency virus 1 clone 16 harboring integrase E11D, S17T, L45V, M50T, I72V, L74I, K111T, T125A relative to wild type HIV1; format: functional
[13] = test system: Human immunodeficiency virus 1; assay: Antiviral activity against Human immunodeficiency virus 1 clone 19 harboring integrase E11D, S17T, L45V, M50T, I72V, L74I, T97A, K111T, S119G, T125A relative to wild type HIV1; format: functional
[14] = test system: Human immunodeficiency virus 1; assay: Antiviral activity against Human immunodeficiency virus 1 clone 20 harboring integrase E11D, S17T, L45V, M50T, I72V, L74I, K111T, T125A, I217V relative to wild type HIV1; format: functional
[15] = test system: Human immunodeficiency virus 1; assay: Antiviral activity against Human immunodeficiency virus 1 clone 2 harboring integrase S17N, I84I, T124N, T125A, M154I, E157K, S195C mutant gene relative to wild type HIV1; format: functional
[16] = test system: Human immunodeficiency virus 1; assay: Antiviral activity against Human immunodeficiency virus 1 clone 3 harboring integrase S17N, I84I, T124N, T125A, M154I, S195C mutant gene relative to wild type HIV1; format: functional
[17] = test system: Human immunodeficiency virus 1; assay: Antiviral activity against Human immunodeficiency virus 1 clone 9 harboring integrase S17N, I84I, T124N, T125A, M154I, A175T, S195C mutant gene relative to wild type HIV1; format: functional
[18] = test system: Human immunodeficiency virus 1; assay: Antiviral activity against Human immunodeficiency virus 1 clone 13 harboring integrase S17N, T124N, T125A, G140S, M154I, S195C mutant gene relative to wild type HIV1; format: functional
[19] = test system: Human immunodeficiency virus 1; assay: Antiviral activity against Human immunodeficiency virus 1 clone 14 harboring integrase S17N, T124N, T125A, M154I, S195C, V201I mutant gene relative to wild type HIV1; format: functional
[20] = test system: Human immunodeficiency virus 1; assay: Antiviral activity against Human immunodeficiency virus 1 clone 16 harboring integrase S17N, T124N, T125A, M154I, S195C, V201I mutant gene relative to wild type HIV1; format: functional
[21] = test system: Human immunodeficiency virus 1; assay: Antiviral activity against Human immunodeficiency virus 1 clone 18 harboring integrase S17N, I84I, T124N, T125A, M154I, S195C, V201I, S230G mutant gene relative to wild type HIV1; format: functional
[22] = test system: Human immunodeficiency virus 1; assay: Antiviral activity against Human immunodeficiency virus 1 clone 3 harboring integrase R20K, A23V, T124N, I141V, G193E, V201I, T206S, I220V, M275Vmutant gene relative to wild type HIV1; format: functional
[23] = test system: Human immunodeficiency virus 1; assay: Antiviral activity against Human immunodeficiency virus 1 3B infected in human MT4 cells assessed as inhibition of virus induced cytopathic effect; format: functional, organism-based
[24] = test system: Human immunodeficiency virus 1; assay: Antiviral activity against Human immunodeficiency virus 1 3B harboring integrase T66I mutant infected in human MT4 cells assessed as inhibition of virus induced cytopathic effect relative to wild type HIV1; format: functional
[25] = test system: Human immunodeficiency virus 1; assay: Antiviral activity against Human immunodeficiency virus 1 3B harboring integrase E92Q mutant infected in human MT4 cells assessed as inhibition of virus induced cytopathic effect relative to wild type HIV1; format: functional
[26] = test system: Human immunodeficiency virus 1; assay: Antiviral activity against Human immunodeficiency virus 1 3B harboring integrase L68V mutant infected in human MT4 cells assessed as inhibition of virus induced cytopathic effect relative to wild type HIV1; format: functional
[27] = test system: Human immunodeficiency virus 1; assay: Antiviral activity against Human immunodeficiency virus 1 clone 4 harboring integrase R20K, A23V, T124N, I141V, G193E, V201I, T206S, I220V, D279G mutant gene relative to wild type HIV1; format: functional
[28] = test system: Human immunodeficiency virus 1; assay: Antiviral activity against Human immunodeficiency virus 1 clone 13 harboring integrase R20K, A23V, T124N, G193E, V201I, T206S, I268V, I220V mutant gene relative to wild type HIV1; format: functional
[29] = test system: Human immunodeficiency virus 1; assay: Antiviral activity against Human immunodeficiency virus 1 clone 16 harboring integrase R20K, A23V, M50I, T124N, G193E, V201I, T206S, I220V, D279G mutant gene relative to wild type HIV1; format: functional
[30] = test system: Human immunodeficiency virus 1; assay: Antiviral activity against Human immunodeficiency virus 1 clone 15_7 harboring integrase T97A mutant and T97A, Y143R site-directed mutation relative to wild type HIV1; format: functional
[31] = test system: Human immunodeficiency virus 1; assay: Antiviral activity against Human immunodeficiency virus 1 clone 15_19 harboring integrase T97A mutant and T97A, Y143R site-directed mutation relative to wild type HIV1; format: functional
[32] = test system: Human immunodeficiency virus 1; assay: Antiviral activity against Human immunodeficiency virus 1 clone 15_12 harboring integrase Y143R site-directed mutation relative to wild type HIV1; format: functional
[33] = test system: Human immunodeficiency virus 1; assay: Antiviral activity against Human immunodeficiency virus 1 HXB2 assessed as inhibition of virus induced cytopathic effect relative to wild type HIV1; format: functional

Row | Compound | fold change (FC) [1] | fold change (FC) [2] | fold change (FC) [3] | fold change (FC) [4] | fold change (FC) [5] | fold change (FC) [6] | fold change (FC) [7] | fold change (FC) [8] | fold change (FC) [9] | fold change (FC) [10] | fold change (FC) [11] | fold change (FC) [12] | fold change (FC) [13] | fold change (FC) [14] | fold change (FC) [15] | fold change (FC) [16] | fold change (FC) [17] | fold change (FC) [18] | fold change (FC) [19] | fold change (FC) [20] | further results
1 | COc1cc2c(cc1Cc1cccc(Cl)c1F)c(=O)c(C(=O)O)cn2[C@H](CO)C(C)C [ELVITEGRAVIR] | 0.7 | 13 | 2.6 | 1 | 5.6 | 1 | 0.7 | 2.7 | 2.5 | 13 | 0.3 | 0.5 | 2.5 | 1 | 1.1 | 0.6 | 1.3 | 5.6 | 1.3 | 1 | fold change (FC) [21]: 0.8; fold change (FC) [22]: 0.7; EC50 [23]: 11.6 nM; fold change (FC) [24]: 10.5; fold change (FC) [25]: 20.8; fold change (FC) [26]: 1.1; fold change (FC) [27]: 0.7; fold change (FC) [28]: 0.8; fold change (FC) [29]: 0.7; fold change (FC) [30]: 14.6; fold change (FC) [31]: 9.4; fold change (FC) [32]: 4.2; fold change (FC) [33]: 1.2
2 | Cc1nnc(C(=O)NC(C)(C)c2nc(C(=O)NCc3ccc(F)cc3)c(O)c(=O)n2C)o1 [RALTEGRAVIR] | 0.9 | 1.8 | 1.6 | 1.1 | 2.4 | 0.8 | 0.4 | 1.5 | 1.7 | 1.8 | 0.7 | 1.2 | 1.7 | 1.5 | 1.1 | 0.8 | 1.1 | 2.4 | 1.8 | 1.3 | fold change (FC) [21]: 1.3; fold change (FC) [22]: 0.5; EC50 [23]: 6.1 nM; fold change (FC) [24]: 0.8; fold change (FC) [25]: 3.8; fold change (FC) [26]: 0.4; fold change (FC) [27]: 0.2; fold change (FC) [28]: 0.8; fold change (FC) [29]: 0.8; fold change (FC) [30]: 91.6; fold change (FC) [31]: 88.2; fold change (FC) [32]: 13.1; fold change (FC) [33]: 1
